Data published in patent publication US8193351B2, “HSP90 inhibitor” (Chugai Seiyaku Kabushiki Kaisha, priority 2006, dated 2012).

Legend:
[1] = biological target: T1, Human HSP90 alpha (Homo sapiens, UniProt P07900); assay: Measurement of HSP90 enzyme inhibitory activity (ATPase, malachite green); assay type: biochemical; conditions: purified human HSP90 alpha, 1 mM ATP added, 37° C., two hours; read-out: Enzyme inhibitory activity (IC50, μM) Human HSP 90α
T1 construct: made in house; host or cells: E. coli BL21 codon plus (Stratagene)
Procedure: HSP90 enzyme inhibitory activity of the compounds of the present invention represented by formula (1) was measured by the following method. Among the 6-phenyl-N-phenyl-(1,3,5)triazin/(1,3)pyrimidin-2,4-diamine derivatives which are known LPAAT-β inhibitors, the following two compounds were used as comparative compounds, and their HSP90 enzyme inhibitory activities were measured similarly by the following method.
Introduction of pETHuHSP90a into E. coli (BL21 codon plus; Stratagene) was followed by O/N incubation in the presence of 0.1 mM IPTG, and the collected E. coli cells were disrupted by ultrasonication in a Lysis buffer (50 mM Tris-HCl (pH8.0), 10 mM MgCl2, 0.1% Triton X-100, Protease inhibitor cocktail tablets (Roche Diagnostics)). The cell lysate solution was centrifuged (10,000 rpm×30 minutes), and the supernatant obtained after centrifugation was used as a crude extract. The crude extract was fractionated using HisPrep FF column and HiTrap Q column (Amersham) to prepare a purified enzyme solution.
An enzyme solution for assays was prepared by dilution of the purified enzyme solution using an assay buffer (50 mM Tris HCl pH7.6, 20 mM KCl, 5 mM MgCl2).
10 μL each of various concentrations of the test substances (10% DMSO solution) was added to each well, and for the positive control wells, 10 μL of 10% DMSO was added. 10 μL of 10% DMSO was also added to the negative control well.
10 μL of 1 mM ATP was added to all of the wells, and the reaction was carried out at 37° C. for two hours.

[2] = system: HCT116 cells; assay: Measurement of cell growth inhibition (Cell Counting Kit-8, four days); assay type: cell-based; conditions: Homo sapiens, HCT-116, 96 h; HCT116 colon cancer cell line, four days culture; read-out: Cell growth inhibitory activity (IC50, μM) HCT116
Procedure: Cell growth inhibitory activities of the compounds of the present invention represented by formula (1) were measured by the following method.
Cells were maintained under conditions recommended by the provider of each cell line. Cells suspended in a medium were added to solutions containing various concentrations of the test substance, and the cells were cultured at 37° C. in a 5% CO2 incubator. Four days later, Cell Counting Kit-8 was added, and absorbance measurements were taken following the protocol included in the kit.

| IC50 [1] [µM] | IC50 [2] [µM] | SMILES |
| --- | --- | --- |
| 1.5 | 1.1 | N#CCOc1cc(-c2cc(Sc3nc4ccccc4[nH]3)nc(N)n2)c(Cl)cc1Cl [Example 54, {5-[2-amino-6-(1H-benzimidazol-2-ylsulfanyl)-pyrimidin-4-yl]-2,4-dichlorophenoxy}-acetonitrile] |
| 1.7 | 5.3 | CCOC(=O)c1cnc(Sc2cc(-c3cc(OCC#N)c(Cl)cc3Cl)nc(N)n2)[nH]1 [Example 55, 2-[2-amino-6-(2,4-dichloro-5-cyanomethoxyphenyl)-pyrimidin-4-ylsulfanyl]-3H-imidazol-4-carboxylic acid ethyl ester] |
| 1.2 | 8.5 | Nc1nc(SCc2ccccc2)nc(-c2cc(OCc3ccccc3)c(Cl)cc2Cl)n1 [Example 4, 4-(5-benzyloxy-2,4-dichlorophenyl)-6-benzylsulfanyl[1,3,5]triazin-2-ylamine] |
| 2.8 | 1.3 | NC(=O)c1cc(-c2nc(N)nc(SCc3ccccc3)n2)c(Cl)cc1Cl [Example 26, 5-(4-amino-6-benzylsulfanyl-[1,3,5]triazin-2-yl)-2,4-dichlorobenzamide] |
| 1.2 | 2.1 | Nc1nc(SCC2CNC(=O)O2)cc(-c2c(Cl)cc3c4c(cccc24)COC3)n1 (stereo not shown) [Example 330, 5-[2-amino-6-(5-chloro-1H,3H-benzo[de]isochromen-6-yl)-pyrimidin-4-ylsulfanylmethyl]-oxazolidin-2-one] |
| 1.7 | 1.4 | COc1ccc(OC)c(Sc2cc(-c3cc(OCC#N)c(Cl)cc3Cl)nc(N)n2)c1 [Example 52, {5-[2-amino-6-(2,5-dimethoxyphenylsulfanyl)-pyrimidin-4-yl]-2,4-dichlorophenyoxy}-acetonitrile] |
| 1 | 0.12 | CC(=O)NCCSc1nc(N)nc(-c2cc(OCC#N)c(Cl)cc2Cl)n1 [Example 59, N-{2-[4-amino-6-(2,4-dichloro-5-cyanomethoxy-phenyl)-[1,3,5]triazin-2-ylsulfanyl]-ethyl}-acetamide] |
| 2.5 | 42.9 | COc1ccc(OC)c(Sc2cc(-c3cc(OCc4ccccc4)c(Cl)cc3Cl)nc(N)n2)c1 [Example 48, 4-(5-benzyloxy-2,4-dichlorophenyl)-6-(2,5-dimethoxyphenylsulfanyl)-pyrimidin-2-ylamine] |
| 1.8 | 8.5 | COc1ccc(OC)c(Sc2cc(-c3ccc(Cl)cc3Cl)nc(N)n2)c1 [Example 39, 4-(2,4-dichlorophenyl)-6-(2,5-dimethoxyphenylsulfanyl)-pyrimidin-2-ylamine] |
| 1.3 | 1.1 | NC(=O)CSc1cc(-c2c(Cl)cc3c4c(cccc24)COC3)nc(N)n1 [Example 314, 2-[2-amino-6-(5-chloro-1H,3H-benzo[de]isochromen-6-yl)-pyrimidin-4-ylsulfanyl]-acetamide] |
| 1.3 | 0.13 | CC(CSc1cc(-c2c(Cl)cc3c4c(cccc24)COC3)nc(N)n1)C(N)=O (stereo not shown) [Example 321, 3-[2-amino-6-(5-chloro-1H,3H-benzo[de]isochromen-6-yl)-pyrimidin-4-ylsulfanyl]-2-methyl-propionamide] |

The next lines start with the molecule.

| SMILES | IC50 [1] [µM] | IC50 [2] [µM] |
| --- | --- | --- |
| N#CCNC(=O)CSc1nc(N)nc(-c2c(Cl)cc3c4c(cccc24)COC3)n1 [Example 333, 2-[4-amino-6-(5-chloro-1H,3H-benzo[de]isochromen-6-yl)-[1,3,5]triazin-2-ylsulfanyl]-N-cyano methyl-acetamide] | 1.9 | 0.38 |
| NC(=O)NCCSc1cc(-c2c(Cl)cc3c4c(cccc24)COC3)nc(N)n1 [Example 332, {2-[2-amino-6-(5-chloro-1H,3H-benzo[de]isochromen-6-yl)-pyrimidin-4-ylsulfanyl]-ethyl}-urea] | 2.2 | 0.47 |
| NC(=O)CCCSc1cc(-c2c(Cl)cc3c4c(cccc24)COC3)nc(N)n1 [Example 324, 4-[2-amino-6-(5-chloro-1H,3H-benzo[de]isochromen-6-yl)-pyrimidin-4-ylsulfanyl]-butylamide] | 1.8 | 0.16 |
| NC(=O)CCCSc1nc(N)nc(-c2c(Cl)cc3c4c(cccc24)CSC3)n1 [Example 343, 4-[4-amino-6-(5-chloro-1H,3H-2-thia-phenalen-6-yl)-[1,3,5]triazin-2-ylsulfanyl]-butyramide] | 1.8 | 0.015 |
| Nc1nc(SCCCO)cc(-c2c(Cl)cc3c4c(cccc24)COC3)n1 [Example 326, 3-[2-amino-6-(5-chloro-1H,3H-benzo[de]isochromen-6-yl)-pyrimidin-4-ylsulfanyl]-propan-1-ol] | 2.1 | 0.52 |
| Nc1nc(SCCC(=O)NC[C@@H](O)CO)cc(-c2c(Cl)cc3c4c(cccc24)COC3)n1 [Example 320, 3-[2-amino-6-(5-chloro-1H,3H-benzo[de]isochromen-6-yl)-pyrimidin-4-ylsulfanyl]-N—((R)-2,3-dihydroxy-propyl)-propionamide] | 1.4 | 0.63 |
| Nc1nc(SCCCO)nc(-c2c(Cl)cc3c4c(cccc24)COC3)n1 [Example 340, 3-[4-amino-6-(5-chloro-1H,3H-benzo[de]isochromen-6-yl)-[1,3,5]triazin-2-ylsulfanyl]-propan-1-ol] | 3.3 | 0.12 |
| CC(CSc1nc(N)nc(-c2c(Cl)cc3c4c(cccc24)COC3)n1)C(=O)NCCO (stereo not shown) [Example 338, 3-[4-amino-6-(5-chloro-1H,3H-benzo[de]isochromen-6-yl)-[1,3,5]triazin-2-ylsulfanyl]-N-(2-hydroxy-ethyl)-2-methyl-propionamide] | 1.5 | 0.12 |
| COCCNC(=O)CCSc1nc(N)nc(-c2c(Cl)cc3c4c(cccc24)COC3)n1 [Example 334, 3-[4-amino-6-(5-chloro-1H,3H-benzo[de]isochromen-6-yl)-[1,3,5]triazin-2-ylsulfanyl]-N-(2-methoxy-ethyl)-propionamide] | 1.3 | 0.16 |
| Nc1nc(SC2CCCCC2)nc(-c2c(Cl)cc3c4c(cccc24)COC3)n1 [Example 92, 4-(5-chloro-1H,3H-benzo[de]isochromen-6-yl)-6-cyclohexylsulfanyl-[1,3,5]triazin-2-ylamine] | 1.1 | 9.2 |
| COC(=O)c1cc(-c2nc(N)nc(SCC(O)CO)n2)c(C)cc1C (stereo not shown) [Example 37, 5-[4-amino-6-(2,3-dihydroxypropylsulfanyl)-[1,3,5]triazin-2-yl]-2,4-dimethylbenzoic acid methyl ester] | 1.4 | 6.6 |
| Nc1nc(SCCC(=O)NCCO)cc(-c2c(Cl)cc3c4c(cccc24)COC3)n1 [Example 317, 3-[2-amino-6-(5-chloro-1H,3H-benzo[de]isochromen-6-yl)-pyrimidin-4-ylsulfanyl]-N-(2-hydroxy-ethyl)-propionamide] | 1.3 | 0.41 |
| CC(=O)NCCCSc1nc(N)nc(-c2c(Cl)cc3c4c(cccc24)COC3)n1 [Example 149, N-{3-[4-amino-6-(5-chloro-1H,3H-benzo[de]isochromen-6-yl)-[1,3,5]triazin-2-ylsulfanyl]-propyl}-acetamide] | 2.8 | 0.11 |
| CC(=O)NCCCSc1cc(-c2c(Cl)cc3c4c(cccc24)COC3)nc(N)n1 [Example 328, N-{3-[2-amino-6-(5-chloro-1H,3H-benzo[de]isochromen-6-yl)-pyrimidin-4-ylsulfanyl]-propyl}-acetamide] | 2.1 | 0.2 |
| COc1ccc(OC)c(Sc2nc(N)nc(-c3c(Cl)cc4c5c(cccc35)COC4)n2)c1 [Example 145, 4-(5-Chloro-1H,3H-benzo[de]isochromen-6-yl)-6-(2,5-dimethoxyphenylsulfanyl)-[1,3,5]triazin-2-ylamine] | 1.9 | 0.24 |
| COC(=O)CSc1nc(N)nc(-c2c(Cl)cc3c4c(cccc24)COC3)n1 [Example 111, [4-amino-6-(5-chloro-1H,3H-benzo[de]isochromen-6-yl)-[1,3,5]triazin-2-ylsulfanyl]-acetic acid methyl ester] | 1.1 | 0.2 |
| CC(=O)NCCSc1cc(-c2c(Cl)cc3c4c(cccc24)COC3)nc(N)n1 [Example 327, N-{2-[2-amino-6-(5-chloro-1H,3H-benzo[de]isochromen-6-yl)-pyrimidin-4-ylsulfanyl]-ethyl}-acetamide] | 2.1 | 0.93 |
| CC(CSc1cc(-c2c(Cl)cc3c4c(cccc24)COC3)nc(N)n1)C(=O)NCCO (stereo not shown) [Example 323, 3-[2-amino-6-(5-chloro-1H,3H-benzo[de]isochromen-6-yl)-pyrimidin-4-ylsulfanyl]-N-(2-hydroxy-ethyl)-2-methyl-propionamide] | 2.8 | 0.21 |
